Measurements as given in patent US6657086B2, “C2-substituted indan-1-ols and their derivatives, processes for their preparation and their use as pharmaceuticals” (Aventis Pharma Deutschland GmbH, priority 2001, dated 2003).

Columns and labels:
female NMRI mice = assay: Anorectic action: cumulative evaporated milk consumption after 24 h feed removal; format: in vivo; conditions: compared with control animals
Protocol: The activity of the compounds was assayed as follows:
The anorectic action was tested on female NMRI mice. After removal of feed for 24 hours, the preparation to be tested was administered intraperitoneally (ip) or by gavage (po). The animals were housed singly and, with free access to drinking water, they were offered evaporated milk 30 minutes after administration of the preparation. The consumption of evaporated milk was determined and the general behavior of the animals was monitored every half an hour for 7 hours. The measured milk consumption was compared to that of vehicle-treated control animals.

| melting point [°C] | Structure (SMILES) | Reduction in cumulative milk consumption as % of the control (female NMRI mice; dose 20 mg/kg) [%] | Reduction in cumulative milk consumption as % of the control (female NMRI mice; dose 50 mg/kg) [%] |
| --- | --- | --- | --- |
| 163 | CS(=O)(=O)C1Cc2cc(Cl)ccc2C1O (stereo not shown) [Example 1, 5-Chloro-2-methylsulfonylindan-1-ol] | 50 |  |
| 145 | CCS(=O)(=O)C1Cc2cc(Cl)ccc2C1O (stereo not shown) [Example 3, 5-Chloro-2-ethanesulfonylindan-1-ol] |  |  |
|  | CSC1Cc2cc(Cl)ccc2C1O (stereo not shown) [Example 4, 5-Chloro-2-methylsulfanylindan-1-ol] |  | 85 |
